Test results published in patent US8106051B2, “Utilities of amide compounds” (Shionogi & Co., Ltd., priority 2001, dated 2012).

Experiments:
[1] = tested on: promoter region of the gene encoding human apoAI; assay: Activity to enhance the expression of human apoAI (apoAI promoter-luciferase reporter in HepG2 cells); format: cell-based; conditions: HepG2 cells stably expressing human apoAI promoter-firefly luciferase reporter; 24 hours incubation; 0 to 10 μg/mL; control DMSO
Description: The promoter region of the gene encoding human apoAI was isolated, and ligated upstream the structure gene of firefly luciferase to construct a reporter plasmid. The reporter plasmid and a marker plasmid conferring the neomycin resistance were co-infected to cell lines derived from human hepatoma, HepG2 cells, and the cell lines were incubated in a selection medium comprising DMEM medium containing 10% fetal calf serum supplemented with G418 (Final concentration: 0.7 mg/mL, Gibco) to give established strains that stably expressed the reporter molecule. The strains were seeded to a 96-well culture plates at a density of 50,000 cells per well, and incubated for 48 hours at 37° C. under an atmosphere of 5% carbon dioxide. Then, a solution of the compounds according to the invention in DMSO was added to the wells at final concentrations of 0 to 10 μg/mL. After further incubation for 24 hours, the cells were added with a luciferase assay reagent (Piccagene LT 7.5 registered trade mark, Toyo Ink, KK), and the luciferase activity was determined using a luminometer (MicroBeta™ TRILUX, 1 sec/well, Wallac). The concentration of the compounds, which intensified the luciferase activity twice compared to that of control (DMSO without any compound of the invention added) was set as the minimal effective dose (MED).

Row | SMILES | melting point | MED (minimal effective dose): concentration which intensified the luciferase activity twice compared to that of control [1]
1 | O=C(C=Cc1ccccc1)Nc1cnc2ccccc2n1 [Ia-9, 3-Phenyl-N-quinoxalin-2-yl-acrylamide] | 177 to 178 °C | 
2 | Cc1ccc(NC(=O)c2ccc(Cl)cc2)cc1 [Ib-17, 4-Chloro-N-(4-tolyl)benzamide] |  | 0.30 µg/mL
